{"source": "ChEMBL document CHEMBL1147424", "about": "“TMC-95A, a reversible proteasome inhibitor, induces neurite outgrowth in PC12 cells” (2004)", "test_system": "PC-12", "test": "Neuritogenic activity of compound in PC12 rat pheochromocytoma cells was evaluated at dose of 20 uM; Positive neurite initiation after 16 hour incubation", "type": "functional"}
{"smiles": "C/C=C\\NC(=O)C1NC(=O)[C@H](CC(N)=O)NC(=O)[C@@H](NC(=O)C(=O)[C@@H](C)CC)Cc2ccc(O)c(c2)-c2cccc3c2NC(=O)[C@@]3(O)[C@@H]1O", "note": "(stereo partly specified)", "values": [{"measurement": "Activity", "result": 60, "unit": "%"}]}
